Reference: article PMC11555231 (Nature Communications, 2024)
Bridge positions count the residues as written; N and C are the ends. Peptide text beside a SMILES is read from it.

What was measured:
[1] = test system: cellular PADI4 in hPADI4-stable mES cell extracts; assay: Cell lysate activity assay, H3Cit2 immunoblot, with or without pre-incubation before calcium; assay type: biochemical, mouse; conditions: inhibitor added 20 mins prior (pre-incubation) or concurrent with calcium
Excerpt: Neutrophil samples were boiled in a sodium dodecyl sulphate (SDS) buffer containing dithiothreitol (DTT) and run on a polyacrylamide gel electrophoresis (SDS-PAGE) using Criterion TGX precast gels (Any-KD; Bio-Rad Laboratories). Proteins were then transferred to a PVDF membrane (Bio-Rad Laboratories) via semi-dry transfer. The membrane was blocked with 5% BSA (Fisher Scientific) in Tris-buffered saline with 0.1% Tween-20 (TBS-T). Levels of citrullinated histone H3, total H3 and myeloperoxidase (MPO) were assessed by incubating membranes in either anti-histone H3 citrulline R2 + R8 + R17 (Abcam; ab5103 1:1000), anti-histone H3 (Millipore; 07-690 1:10000) or anti-MPO (DAKO; A0398 1:2500) overnight at 4 °C, respectively. For cell lysate-based assays and pull-down assays, membranes were incubated as above with anti-hPADI4 (Abcam; ab50332; 1:1000 in 5% BSA/TBS-T), anti-Bcr (Cell Signalling #3902S; 1:1000 in 3% milk/TBS-T) and anti-Impdh2 (Cell Signalling #57068S; 1:1000 in 3% milk/TBS-T). Membranes were washed in 0.1% TBS-T and subsequently incubated with goat anti-rabbit HRP or anti-goat (Fisher Scientific) for 1 h, followed by final washes in 0.1% TBS-T. Membranes were imaged with enhanced chemiluminescent substrate (ECL) (Thermo Fisher) on a Bio-Rad imager.
Supplementary Figure 2. PADI4_3 is a potent and selective hPADI4 inhibitor. A. […]

HaLo-GFP-mito HeLa cells = assay: Chloroalkane penetration assay (CAPA); assay type: in vitro ADME; conditions: CAPA, chloroalkane-tagged peptide, 4 h in Opti-MEM, 37 °C, chase HaLo-Tag TMR ligand 5 µM 15 min, flow cytometry; mean ± SEM of three independent experiments
Protocol: Following the addition of chloroacetyl-NHS to the N-terminal amino group, Cys(mmt) was selectively deprotected using 1% TFA, 5% triisopropylsilane in DCM (30 min, RT). Peptides were then cyclised on resin using 2% diisopropylethylamine in DMF overnight. Following cyclisation, Lys(ivDde) was deprotected using 2% hydrazine in DMF. The resin was then washed (3 x DCM, 3 x DMF) before on-resin coupling of chloroalkane carboxylic acid was performed on the lysine side chain using Hexafluorophosphate Azabenzotriazole Tetramethyl Uronium / diisopropylethylamine in DMF for 2 h. Global deprotection and purification were then carried out as described above. Chloroalkane carboxylate was synthesised as previously described.
CAPA assays were performed following the protocol published in ref. [51]. In brief, 40,000 HaLo- GFP-mito HeLa cells were seeded in a 96-well plate. Twenty-four hours later, cells were treated with different concentrations of chloroalkane-tagged peptides (100 µM to 200 nM for PADI4_3 and PADI4_3i and 50 µM to 100 nM for PADI4_11 and PADI4_11i) for 4 h in Opti-MEM. Media containing peptides was then removed, and cells were incubated with Opti-MEM (Gibco) for 15 min. After that time, the wash was removed, and cells were chased with HaLo-Tag TMR ligand (5 µM, Promega) in Opti-MEM for 15 min. The ligand was then removed, and cells were incubated with Opti-MEM for 30 min. Cells were then trypsinised, resuspended in phosphate-buffered saline (PBS) with 0.5% FBS and analysed using a benchtop flow cytometer (MACSQuant® VYB Flow cytometer Milteny Biotec). For each well, 10000 GFP positive single cells were analysed (gating workflow shown in Supplementary Fig. 18), and TMR mean fluorescence was normalised against a positive control (cells treated with HaLo-Tag TMR ligand but no peptide) and a negative control (non-treated cells). Analysis was performed using FlowJo (LCC) software and Prism GraphPad (Dotmatics). Data were presented as the average ± standard error of three independent replicates.

hPADI4-stable mES cells = assay: High content microscopy of citrullinated histone H3 (H3Cit) in hPADI4-stable mES cells; assay type: cell-based, mouse; conditions: mean H3Cit intensity, peptide 1 h, without any other activating stimulus
Protocol: HaLo-GFP-mito HeLa cells were grown in DMEM (Gibco) supplemented with 10% foetal bovine serum (FBS), penicillin/streptomycin (100 µg/ml) and puromycin (1 µg/ml) at 37 °C, 5% CO2. HaLo-GFP-mito HeLa cell line[82] was profiled by short tandem repeat analysis (STR) and tested negative for mycoplasma by the Cell Services Technology Platform at the Francis Crick Institute. E14 –mouse embryonic stem cells (Cambridge Stem Cell Institute, UK) were cultured in plates coated with 1% gelatine in GMEM supplemented with 10% foetal calf serum (FCS) batch-tested for ES cell culture (Gibco), 0.1 mM non-essential amino acids, 2 mM L-glutamine, 1 mM sodium pyruvate, 0.1 mM β-mercaptoethanol and 50 ng/mL leukaemia inhibitory factor (LIF) (ESGRO, Millipore). For PADI4 activation, cells were cultured in GMEM containing 10% knockout serum replacement (KSR, Life Technologies), 1% FCS batch-tested for ES cell culture (Gibco), 0.1 mM non-essential amino acids, L-glutamine, 1 mM sodium pyruvate, 0.1 mM β-mercaptoethanol, 50 ng/mL LIF (ESGRO, Millipore), 1 μM PD0325901 (AxonMedChem) and 3 μM CHIR99021 (AxonMedChem). For the generation of E14 mES stably expressing human PADI4 (hPADI4-stable), human PADI4 cDNA was inserted into ES E14 cells using the piggyBac transposon system. The Gateway system was used to clone human PADI4 into the piggyBac vector using primers PADI4_AttB1_F and PADI4_AttB2_R (Table S4). pPB-CAG-CTRL (empty vector) or pPB-CAG-hPADI4 vectors […] were transfected with the piggyBac transposase (pPBase) expression vector, pCAGPBase […], by lipofection according to the manufacturer’s instructions (Lipofectamine 2000, Invitrogen). E14 cells constitutively expressing the hygromycin resistance gene and human PADI4 were selected and expanded in media containing […] hygromycin.
E14 cells were seeded onto 96-well PerkinElmer cell carrier ultra plates (Phenoplates) coated with 0.1% gelatine, at 25,000 cells per well and grown overnight at 37 °C, 5% CO2. Outer wells were excluded but medium was added to minimise any edge effects. […]

[2] = test system: calcium influx into cells; assay: Calcium imaging with Calbryte 520 AM; assay type: cell-based; conditions: Calbryte intensity, 25 µM peptide, 60 min
Protocol: Calbryte™ 520 AM dye (https://www.aatbio.com/products/calbryte-520-am) was used for quantification of calcium influx into cells. Cells were seeded onto 10 mm optical imaging plates at 10^5 cells per dish and allowed to attach overnight. Cells were stained with 10 μM Calbryte dye in normal growth medium for 1 h, 37 °C, 5% CO2, washed once with cell culture medium and imaged using a Nikon Wide-field microscope. A time series was performed, with a 488 laser image taken every second. After 1 min of imaging (baseline readings), PADI4_11 (25 μM), PADI4_11i (25 μM) or calcium ionophore (10 μM, as positive control) were added, and cells were imaged for a further 60 min. Analysis was done using imageJ —region of interest (ROI) were taken for each cell at each time point using ROI manager. Background values (ROI with no cells) were taken at each time point and removed from the same background reading (i.e. ROI at 1 second with cells minus ROI at 1 s background value). An average of at least ten cells was taken for each condition and each average data point was divided by the initial average data point for that cell, to obtain overall response.

## COc1cc(C(=O)N2CC[C@@H](O)[C@@H](N)C2)cc2nc(-c3cc4ccccc4n3CC3CC3)n(C)c12 [GSK484]
[1]
  inhibition of histone 3 citrullination (H3Cit) in cell lysates containing active cellular PADI4: required pre-incubation to be active

## CC(C)C[C@H](NC(=O)[C@H](CCC(N)=O)NC(=O)[C@H](CC(C)C)NC(=O)[C@@H](NC(=O)[C@H](CCC(N)=O)NC(=O)[C@H](CCCNC(=N)N)NC(=O)[C@H](Cc1ccc(O)cc1)NC(=O)[C@H](CCCNC(=N)N)NC(=O)[C@@H]1CSCC(=O)N[C@@H](Cc2ccc(O)cc2)C(=O)N[C@@H](CO)C(=O)N[C@@H](CCC(=O)O)C(=O)N1)C(C)C)C(N)=O [PADI4_11i] ({CH2CO}-YSECRYRQVLQL-NH2; thioether N-4)
HaLo-GFP-mito HeLa cells
  CP50: 2.0 ± 0.5 µM
hPADI4-stable mES cells
  PADI4 activation in cells (in words): does not have the same effect
[2]
  intracellular calcium levels (calcium influx): neither PADI4_11, nor PADI4_11i, were responsible for increased intracellular calcium levels
